Measured values: US9718821B2, “Pyridopyrimidinone inhibitors of kinases” (AbbVie Inc., priority 2012, dated 2017)

What follows are molecules tested against T1, GST-tagged-Wee1 kinase (Homo sapiens, UniProt P30291) (assay: Wee1 time-resolved fluorescence equilibrium binding assay (displacement of Oregon Green-labeled ATP-competitive kinase probe)). Conditions: enzyme binding data; GST-tagged-Wee1 kinase 2 nM, fluorescent probe 300 nM, inhibitor 0.003 to 10 micromolar, 1 hour incubation; read-out: Wee-1 binding (Ki nM).
T1 construct: purchased Carnabio 05-177
In short: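 Competitive TR-fluorescence equilibrium binding with GST-Wee1; inhibitors displace a rapidly reversible Oregon Green-labelled ATP-competitive probe. Ki values derived from probe displacement.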

T1 sequence (P30291 whole entry): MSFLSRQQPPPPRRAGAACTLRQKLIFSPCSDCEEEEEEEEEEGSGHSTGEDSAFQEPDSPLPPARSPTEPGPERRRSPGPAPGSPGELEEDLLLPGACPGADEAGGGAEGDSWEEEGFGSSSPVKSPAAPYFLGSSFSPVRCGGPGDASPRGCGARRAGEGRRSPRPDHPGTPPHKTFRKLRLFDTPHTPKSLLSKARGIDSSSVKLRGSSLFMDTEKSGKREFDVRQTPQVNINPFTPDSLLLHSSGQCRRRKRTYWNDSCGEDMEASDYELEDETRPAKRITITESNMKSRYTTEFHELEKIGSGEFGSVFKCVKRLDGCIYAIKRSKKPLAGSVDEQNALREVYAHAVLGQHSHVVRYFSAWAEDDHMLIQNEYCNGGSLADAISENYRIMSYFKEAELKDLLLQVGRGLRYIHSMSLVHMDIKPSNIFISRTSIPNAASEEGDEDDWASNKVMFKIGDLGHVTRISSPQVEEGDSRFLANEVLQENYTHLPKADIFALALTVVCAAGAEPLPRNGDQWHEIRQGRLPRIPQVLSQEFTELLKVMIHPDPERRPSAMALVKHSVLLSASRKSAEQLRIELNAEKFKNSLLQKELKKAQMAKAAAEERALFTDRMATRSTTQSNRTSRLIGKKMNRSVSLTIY

| Ki | SMILES |
| --- | --- |
| 0.3 nM | Cc1cn(-c2c(Cl)cccc2Cl)c(=O)c2cnc(Nc3ccc4c(c3)CNCC4(C)C)nc12 [Example 77, 6-(2,6-dichlorophenyl)-2-[(4,4-dimethyl-1,2,3,4-tetrahydroisoquinolin-7-yl)amino]-8-methylpyrido[4,3-d]pyrimidin-5(6H)-one] |
| 1.8 nM | C=Cc1cn(-c2c(Cl)cccc2Cl)c(=O)c2cnc(Nc3ccc(N4CC5CNCC5C4)cc3)nc12 (stereo not drawn) [Example 52, 6-(2,6-dichlorophenyl)-8-ethenyl-2-{[4-(hexahydropyrrolo[3,4-c]pyrrol-2(1H)-yl)phenyl]amino}pyrido[4,3-d]pyrimidin-5(6H)-one] |
| 127 nM | CNc1ncc2c(=O)n(-c3c(Cl)cccc3Cl)cc(C)c2n1 [Example 65, 6-(2,6-dichlorophenyl)-8-methyl-2-(methylamino)pyrido[4,3-d]pyrimidin-5(6H)-one] |
